# Values of other authors as cited in patent publication US8119691B2, “Method for treating airway hyper-responsiveness with lipoxin analogs” (National Institutes of Health (NIH), priority 2001, dated 2012).
# What was measured:
# [1] = target: T1, recombinant cysLT1 receptors (Homo sapiens, UniProt Q9Y271); settings: CHO cells, in vitro (ref. 12); cited from earlier work
# T1 construct: host or cells: Chinese hamster ovary cells (recombinant expression)
# T1 sequence (Q9Y271 1-337): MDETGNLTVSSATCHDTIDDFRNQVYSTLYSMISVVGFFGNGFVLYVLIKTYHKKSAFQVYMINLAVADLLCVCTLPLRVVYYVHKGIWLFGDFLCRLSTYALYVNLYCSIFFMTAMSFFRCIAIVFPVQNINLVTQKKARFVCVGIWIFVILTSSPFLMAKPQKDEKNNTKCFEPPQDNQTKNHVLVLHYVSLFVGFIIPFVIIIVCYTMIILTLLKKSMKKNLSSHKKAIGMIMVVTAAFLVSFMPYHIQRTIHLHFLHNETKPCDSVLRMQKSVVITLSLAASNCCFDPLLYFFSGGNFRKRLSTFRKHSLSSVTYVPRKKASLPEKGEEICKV
# eosinophil = settings: cited from earlier work
# airway smooth muscle = settings: in vitro (ref. 23); cited from earlier work
# human asthmatics = settings: native LXA4 given to human asthmatics (ref. 22); cited from earlier work
smiles,measurement,setting,value
"CCCCC[C@H](O)/C=C/C=C\C=C\C=C\[C@@H](O)[C@@H](O)CCCC(=O)O [LXA4, Lipoxin A4]",competition for binding at LTD4 recognition sites and recombinant cysLT1 receptors,[1],compete for binding with high affinity at LTD4 recognition sites
same,eosinophil chemotaxis,eosinophil,directly inhibits eosinophil chemotaxis
same,LTD4-initiated constriction of airway smooth muscle,airway smooth muscle,blocks LTD4-initiated constriction of airway smooth muscle in vitro
same,LTC4-stimulated airway hyper-responsiveness,human asthmatics,inhibits LTC4-stimulated airway hyper-responsiveness
